Measurements taken from ChEMBL document CHEMBL1201862, “PubChem BioAssay data set” (2004).
The source made the active and inactive calls.

Legend:
[1] = biological target: T1, Methionyl-tRNA synthetase, putative (Trypanosoma brucei brucei, UniProt Q38C91); assay type: functional, Trypanosoma brucei brucei strain 927/4 GUTat10.1
T1 sequence (Q38C91 whole entry): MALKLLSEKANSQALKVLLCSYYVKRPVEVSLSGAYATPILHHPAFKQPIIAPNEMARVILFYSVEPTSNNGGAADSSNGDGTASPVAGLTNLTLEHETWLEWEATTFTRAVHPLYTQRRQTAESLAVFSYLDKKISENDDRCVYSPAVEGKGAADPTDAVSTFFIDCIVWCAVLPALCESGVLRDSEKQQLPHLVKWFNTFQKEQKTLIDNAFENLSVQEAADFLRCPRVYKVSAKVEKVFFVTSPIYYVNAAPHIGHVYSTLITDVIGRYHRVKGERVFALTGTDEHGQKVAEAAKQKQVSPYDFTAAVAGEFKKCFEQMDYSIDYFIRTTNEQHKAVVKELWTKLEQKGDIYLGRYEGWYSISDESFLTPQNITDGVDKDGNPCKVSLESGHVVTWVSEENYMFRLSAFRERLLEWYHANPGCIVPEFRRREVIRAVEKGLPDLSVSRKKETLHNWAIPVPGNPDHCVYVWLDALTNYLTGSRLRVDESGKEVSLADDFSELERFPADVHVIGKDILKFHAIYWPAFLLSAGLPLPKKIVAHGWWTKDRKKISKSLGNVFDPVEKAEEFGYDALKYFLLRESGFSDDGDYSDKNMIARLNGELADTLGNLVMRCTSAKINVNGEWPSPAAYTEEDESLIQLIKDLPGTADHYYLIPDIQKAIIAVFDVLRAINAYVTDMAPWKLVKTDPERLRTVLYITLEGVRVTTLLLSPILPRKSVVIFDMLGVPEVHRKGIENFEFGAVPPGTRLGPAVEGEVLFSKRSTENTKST

[2] = inhibitors of HIV Env-driven cell fusion, dose response, cherry-pick (AID 652057); assay type: functional, cell-based
[3] = inhibitors of clade B AD8 Env fusion, dose response, cell-based, cherry-pick (AID 652062); assay type: functional;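 note: luciferase signal from cell-cell fusion driven by HIV-1 clade B AD8 Env; potency is for inhibitors of fusion seen as a drop in luminescence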
[4] = off-target signal loss in HeLa-CEM21 co-culture – HeLa F-luc CTL cells, cherry-picked, counter-screen for HIV-1 Env fusion inhibitor project, dose response (AID 652040); assay type: functional, cell-based;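 note: potency for signal decrease marking cytotoxic or nonspecific inhibition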
[5] = ZM109 Env clade C HIV-1 fusion inhibitors, dose response, HeLa effector, CEM target cells, luciferase, cherry-pick (AID 652058); assay type: functional, cell-based
[6] = CEM21 lymphoblast cell cytotoxicity, dose response, cytotoxicity control for viral fusion inhibitor project, CellTiter-Glo luminescence, cherry-picked (AID 652042); assay type: functional, cell-based;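 note: potency for signal decrease meaning cytotoxicity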
[7] = biological target: T1, Methionyl-tRNA synthetase, putative; assay type: functional, Trypanosoma brucei brucei strain 927/4 GUTat10.1; remark: listed apart in the source
[8] = Counterscreen for inhibitors of Trypanosoma brucei methionyl tRNA synthetase (MetRS): Luminescence-based cell-based high throughput dose response assay to identify compounds that are cytotoxic to Jurkat human T lymphocyte cells.; assay type: functional
Melanocortin receptor 4 = Melanocortin receptor 4 (Homo sapiens, UniProt P32245); assay type: functional, cell-based;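 note: Cell-based assay with luminescence read-out, confirmatory dose-response testing for agonist activity of biased ligands at MC4R; human U2OS cells with tagged receptor and beta-arrestin; potency of agonists that increase receptor coupling to beta-arrestin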
Chain of Melanocortin receptor 4 (P32245 whole entry): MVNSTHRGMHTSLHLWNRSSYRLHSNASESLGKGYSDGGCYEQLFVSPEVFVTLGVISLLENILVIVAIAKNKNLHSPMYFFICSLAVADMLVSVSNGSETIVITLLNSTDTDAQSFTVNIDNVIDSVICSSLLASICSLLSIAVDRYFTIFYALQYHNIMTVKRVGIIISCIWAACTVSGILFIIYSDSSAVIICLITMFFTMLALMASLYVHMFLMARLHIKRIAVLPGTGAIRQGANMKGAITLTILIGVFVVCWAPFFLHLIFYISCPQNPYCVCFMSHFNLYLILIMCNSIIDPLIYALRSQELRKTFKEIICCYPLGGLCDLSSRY

[9] = biological target: T2, Trace amine-associated receptor 1 (Homo sapiens, UniProt Q96RJ0); assay: Fluorescence-based cell-based high throughput dose response assay to identify agonists of the human trace amine associated receptor 1 (TAAR1).; assay type: functional
T2 sequence (Q96RJ0 whole entry): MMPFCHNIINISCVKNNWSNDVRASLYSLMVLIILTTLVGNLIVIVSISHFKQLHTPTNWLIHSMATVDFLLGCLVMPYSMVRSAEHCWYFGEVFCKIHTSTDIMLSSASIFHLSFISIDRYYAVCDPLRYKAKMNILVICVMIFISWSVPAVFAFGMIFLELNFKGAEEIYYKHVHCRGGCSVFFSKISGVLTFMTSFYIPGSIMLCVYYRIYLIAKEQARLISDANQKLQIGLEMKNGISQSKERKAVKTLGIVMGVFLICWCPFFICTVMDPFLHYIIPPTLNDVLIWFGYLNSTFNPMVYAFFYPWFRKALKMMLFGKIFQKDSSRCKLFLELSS

[10] = biological target: T2, Trace amine-associated receptor 1; assay: Counterscreen for agonists of the human trace amine associated receptor 1 (hTAAR1): Fluorescence-based cell-based high throughput dose response assay to identify hTAAR1 agonist that also desensitize TAAR1 receptor response.; assay type: functional
cells [11] = assay type: functional, cell-based
cells [12] = assay type: functional, cell-based; remark: listed apart in the source
[13] = NIH-3T3 fibroblast cytotoxicity, dose response, cytotoxicity control, cell-based, fluorescence, Alamar Blue, secondary assay (AID 2327); assay type: functional;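 note: NIH-3T3 mouse fibroblasts cultured with fluconazole at 8 µg/mL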
[14] = THP-1 cell cytotoxicity, dose response, cytotoxicity control for non-replicating M. tuberculosis project (AID 489025); assay type: functional
Albumin = Albumin (Bos taurus, UniProt P02769); assay: Counterscreen for inhibitors of T-cell receptor (TCR)-CD3 interaction: Fluorescence-based biochemical high throughput dose response assay to identify inhibitors of T-cell receptor (TCR)-CD3 interaction using a TAMRA-labeled BSA probe.; assay type: functional
Chain of Albumin (P02769 whole entry): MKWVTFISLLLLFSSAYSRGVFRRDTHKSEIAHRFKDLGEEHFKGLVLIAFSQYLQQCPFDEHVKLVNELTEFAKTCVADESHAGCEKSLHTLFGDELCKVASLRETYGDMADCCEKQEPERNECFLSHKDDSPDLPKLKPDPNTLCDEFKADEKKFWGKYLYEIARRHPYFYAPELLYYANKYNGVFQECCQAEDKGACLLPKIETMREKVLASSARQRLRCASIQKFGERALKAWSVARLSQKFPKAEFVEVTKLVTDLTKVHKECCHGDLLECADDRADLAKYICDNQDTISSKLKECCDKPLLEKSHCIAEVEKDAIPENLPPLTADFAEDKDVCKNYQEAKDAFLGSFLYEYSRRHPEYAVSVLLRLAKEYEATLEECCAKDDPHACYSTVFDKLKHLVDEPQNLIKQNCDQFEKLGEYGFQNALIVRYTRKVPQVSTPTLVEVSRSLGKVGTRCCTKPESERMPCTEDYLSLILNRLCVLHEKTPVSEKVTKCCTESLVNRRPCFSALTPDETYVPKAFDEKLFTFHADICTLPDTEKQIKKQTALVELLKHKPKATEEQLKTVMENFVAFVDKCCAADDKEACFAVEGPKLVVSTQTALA

[15] = Vero E6 cell cytotoxicity, dose response, cytotoxicity control for non-replicating M. tuberculosis project, secondary assay (AID 492998); assay type: functional, VeroE6; details: Vero C1008
[16] = C. albicans growth with fluconazole, confirmation, fluorescence, retest (AID 2467); assay type: functional, cell-based
[17] = HepG2 cell cytotoxicity, dose response, cytotoxicity control for non-replicating M. tuberculosis project (AID 489018); assay type: functional; details: Mycobacterium tuberculosis
cells [18] = assay type: functional
Vero = assay: Vero cell toxicity, dose response, cytotoxicity control, plate reader, cherry-pick samples (AID 687020); assay type: functional, cell-based; details: Chlorocebus sabaeus
[19] = biological target: Fructose-bisphosphate aldolase (Mycobacterium tuberculosis, UniProt P9WQA3); assay: Fluorescence-based biochemical high throughput dose response assay for inhibitors of the fructose-bisphosphate aldolase (FBA) of M. tuberculosis.; assay type: functional
Chain of Fructose-bisphosphate aldolase (P9WQA3 whole entry): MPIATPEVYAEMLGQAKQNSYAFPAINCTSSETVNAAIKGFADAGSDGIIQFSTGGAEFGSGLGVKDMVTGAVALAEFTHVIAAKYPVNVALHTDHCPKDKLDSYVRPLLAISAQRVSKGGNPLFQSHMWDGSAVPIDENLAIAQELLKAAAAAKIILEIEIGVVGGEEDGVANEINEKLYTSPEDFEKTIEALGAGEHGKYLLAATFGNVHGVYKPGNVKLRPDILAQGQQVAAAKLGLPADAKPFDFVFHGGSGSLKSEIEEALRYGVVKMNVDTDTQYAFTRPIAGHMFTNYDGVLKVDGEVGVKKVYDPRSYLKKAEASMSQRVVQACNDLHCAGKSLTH

Cytochrome P450 2D6 = Cytochrome P450 2D6 (Homo sapiens, UniProt P10635);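 note: CYP2D6 member of a cytochrome P450 panel assay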
Chain of Cytochrome P450 2D6 (P10635 whole entry): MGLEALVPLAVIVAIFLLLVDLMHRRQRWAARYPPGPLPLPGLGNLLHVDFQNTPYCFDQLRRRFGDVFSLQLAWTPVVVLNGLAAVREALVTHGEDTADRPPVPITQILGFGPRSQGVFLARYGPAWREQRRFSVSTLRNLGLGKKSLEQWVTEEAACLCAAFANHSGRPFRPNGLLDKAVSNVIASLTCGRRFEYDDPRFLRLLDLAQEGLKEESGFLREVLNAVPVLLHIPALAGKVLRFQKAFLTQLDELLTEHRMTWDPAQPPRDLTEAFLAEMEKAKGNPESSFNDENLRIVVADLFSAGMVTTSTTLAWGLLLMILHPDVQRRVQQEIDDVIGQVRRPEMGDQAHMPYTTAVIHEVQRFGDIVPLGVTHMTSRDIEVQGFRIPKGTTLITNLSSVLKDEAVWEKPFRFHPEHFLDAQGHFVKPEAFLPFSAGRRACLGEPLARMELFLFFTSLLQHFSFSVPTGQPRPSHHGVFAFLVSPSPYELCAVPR

[20] = biological target: Long-chain-fatty-acid--AMP ligase FadD28 (Mycobacterium tuberculosis, UniProt P9WQ59); assay: Fluorescence polarization aasay to screen for inhibitors that compete for the binding of FadD28 to a bisubstrate Measured in Biochemical System Using Plate Reader - 2147-01_Inhibitor_Dose_CherryPick_Activity.; assay type: functional, Mycobacterium tuberculosis H37Rv
Chain of Long-chain-fatty-acid--AMP ligase FadD28 (P9WQ59 whole entry): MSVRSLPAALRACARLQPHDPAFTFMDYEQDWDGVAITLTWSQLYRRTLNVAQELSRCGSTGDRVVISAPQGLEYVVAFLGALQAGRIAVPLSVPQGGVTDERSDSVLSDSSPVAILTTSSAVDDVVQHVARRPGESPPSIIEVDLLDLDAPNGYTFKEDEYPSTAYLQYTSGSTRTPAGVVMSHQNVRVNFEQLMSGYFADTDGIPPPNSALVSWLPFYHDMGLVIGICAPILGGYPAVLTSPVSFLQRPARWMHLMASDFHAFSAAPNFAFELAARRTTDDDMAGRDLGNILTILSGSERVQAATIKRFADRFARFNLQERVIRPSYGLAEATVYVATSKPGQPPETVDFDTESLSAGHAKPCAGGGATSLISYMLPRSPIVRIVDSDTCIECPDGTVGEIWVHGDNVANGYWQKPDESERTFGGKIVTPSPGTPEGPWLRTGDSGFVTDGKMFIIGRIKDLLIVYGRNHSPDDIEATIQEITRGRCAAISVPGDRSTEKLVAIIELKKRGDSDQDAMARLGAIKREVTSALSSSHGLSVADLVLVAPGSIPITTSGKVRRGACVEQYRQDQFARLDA

Cytochrome P450 1A2 = biological target: T3, Cytochrome P450 1A2 (Homo sapiens, UniProt P05177);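 note: PubChem cytochrome P450 panel assay, CYP1A2 panel member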
T3 sequence (P05177 whole entry): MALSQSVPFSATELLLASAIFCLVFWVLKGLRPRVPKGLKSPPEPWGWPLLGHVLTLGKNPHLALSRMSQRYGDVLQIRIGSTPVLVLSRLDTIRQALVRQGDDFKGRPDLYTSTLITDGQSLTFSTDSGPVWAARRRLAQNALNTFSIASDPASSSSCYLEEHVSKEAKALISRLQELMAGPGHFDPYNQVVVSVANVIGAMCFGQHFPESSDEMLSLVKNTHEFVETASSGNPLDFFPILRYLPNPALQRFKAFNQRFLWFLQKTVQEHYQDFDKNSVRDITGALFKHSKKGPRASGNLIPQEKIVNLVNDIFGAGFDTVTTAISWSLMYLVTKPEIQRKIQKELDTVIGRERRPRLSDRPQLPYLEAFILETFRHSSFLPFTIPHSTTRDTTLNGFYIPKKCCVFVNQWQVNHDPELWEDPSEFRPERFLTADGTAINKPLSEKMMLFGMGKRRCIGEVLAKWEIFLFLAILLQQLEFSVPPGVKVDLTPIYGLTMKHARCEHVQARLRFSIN

Cytochrome P450 2C9 = Cytochrome P450 2C9 (Homo sapiens, UniProt P11712)
Chain of Cytochrome P450 2C9 (P11712 whole entry): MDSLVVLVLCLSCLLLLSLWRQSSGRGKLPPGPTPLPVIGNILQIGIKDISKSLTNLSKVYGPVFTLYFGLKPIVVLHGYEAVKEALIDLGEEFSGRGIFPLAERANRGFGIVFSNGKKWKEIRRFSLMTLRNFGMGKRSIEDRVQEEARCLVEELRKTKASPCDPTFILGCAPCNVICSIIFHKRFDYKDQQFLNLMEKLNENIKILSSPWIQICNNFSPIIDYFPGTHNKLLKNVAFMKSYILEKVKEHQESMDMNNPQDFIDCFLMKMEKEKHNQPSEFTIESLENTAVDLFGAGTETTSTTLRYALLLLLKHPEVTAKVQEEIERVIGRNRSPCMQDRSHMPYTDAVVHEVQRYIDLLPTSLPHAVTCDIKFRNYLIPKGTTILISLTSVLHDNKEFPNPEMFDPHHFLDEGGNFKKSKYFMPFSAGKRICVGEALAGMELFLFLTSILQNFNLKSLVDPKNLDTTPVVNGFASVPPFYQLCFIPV

[21] = HeLa cell cytotoxicity, dose response, cytotoxicity control, 24 h, plate reader, dry powder (AID 686928); assay type: functional, cell-based
Beta-lactamase [22] = biological target: Beta-lactamase (Pseudomonas aeruginosa, UniProt Q79MP6);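 note: biochemical dose-response test of metallo-beta-lactamase enzyme inhibition, read out by epi-absorbance; purified recombinant IMP-1 metallo-beta-lactamase with nitrocefin as substrate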
Chain of Beta-lactamase (Pseudomonas aeruginosa, UniProt Q79MP6) (Q79MP6 whole entry): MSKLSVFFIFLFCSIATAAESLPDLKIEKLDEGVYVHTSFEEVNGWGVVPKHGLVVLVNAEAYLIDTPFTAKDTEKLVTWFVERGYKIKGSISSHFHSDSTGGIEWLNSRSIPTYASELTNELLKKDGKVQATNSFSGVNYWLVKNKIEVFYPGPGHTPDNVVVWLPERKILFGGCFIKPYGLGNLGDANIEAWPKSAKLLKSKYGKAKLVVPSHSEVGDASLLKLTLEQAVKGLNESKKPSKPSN

Beta-lactamase [23] = biological target: Beta-lactamase (Salmonella choleraesuis (strain SC-B67), UniProt Q5J463)
Chain of Beta-lactamase (Salmonella choleraesuis (strain SC-B67), UniProt Q5J463) (Q5J463 whole entry): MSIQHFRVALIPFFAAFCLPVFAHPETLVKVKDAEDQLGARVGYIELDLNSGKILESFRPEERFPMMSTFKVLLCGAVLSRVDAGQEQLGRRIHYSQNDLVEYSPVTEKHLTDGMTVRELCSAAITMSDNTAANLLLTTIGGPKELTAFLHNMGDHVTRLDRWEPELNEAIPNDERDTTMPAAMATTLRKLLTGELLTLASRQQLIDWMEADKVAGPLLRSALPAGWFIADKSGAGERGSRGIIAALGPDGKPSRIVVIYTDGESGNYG

Streptokinase A = biological target: T4, Streptokinase A (Streptococcus pyogenes serotype M1, UniProt P10520); assay: S. pyogenes streptokinase expression inhibitors, potency, dose response, plasminogen activation absorbance, OD405 (AID 1914); assay type: functional, Streptococcus pyogenes M1 GAS;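 note: secreted streptokinase activity via plasminogen activation per viability signal from cell pellet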
T4 sequence (P10520 whole entry): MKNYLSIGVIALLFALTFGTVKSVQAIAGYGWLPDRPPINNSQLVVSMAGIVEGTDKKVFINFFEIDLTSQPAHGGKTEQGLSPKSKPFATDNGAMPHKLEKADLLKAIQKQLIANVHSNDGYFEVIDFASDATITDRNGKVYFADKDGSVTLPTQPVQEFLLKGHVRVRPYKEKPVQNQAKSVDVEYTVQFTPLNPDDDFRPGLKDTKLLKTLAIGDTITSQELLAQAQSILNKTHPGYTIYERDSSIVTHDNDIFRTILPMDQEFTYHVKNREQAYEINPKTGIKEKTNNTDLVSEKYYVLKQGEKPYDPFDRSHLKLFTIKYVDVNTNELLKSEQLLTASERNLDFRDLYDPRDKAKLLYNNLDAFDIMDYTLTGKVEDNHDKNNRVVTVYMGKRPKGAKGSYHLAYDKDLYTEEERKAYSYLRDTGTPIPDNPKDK

[24] = test system: Streptococcus sp. 'group A'; assay: growth inhibition of control SK(-) GAS strain, dose response, counter-screen for streptokinase expression inhibitor project, luminescence, kanamycin, BacTiterGlo, confirmation (AID 1900); assay type: functional, organism-based
INS1 = assay: beta cell apoptosis inhibitors, cytokine rescue, dose response, luminescence, retest (AID 449756); assay type: functional, cell-based; details: Rattus norvegicus;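 note: cell death triggered by IL-1 beta plus TNF-alpha plus IFN-gamma mixture; protective hits raise ATP signal compared with cytokine alone wells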
[25] = inhibitors of intracellular T. cruzi replication, confirmation, NIH3T3 host cells, beta-gal luminescence (AID 2044); assay type: functional, cell-based;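 note: intracellular parasites grown in NIH/3T3 mouse fibroblasts as host cells; luminescent beta-galactosidase reporter signal from transgenic T. cruzi replicating inside host cells; inhibitors lower the luminescence signal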
Streptococcus = assay: Group A Streptococcus viability loss, dose response, counter-screen for streptokinase expression inhibitor project, luminescence, BacTiterGlo (AID 1915); assay type: functional, organism-based;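 note: potency for reduction of bacterial viability or growth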
[26] = cytotoxicity toward NIH3T3 fibroblasts, dose response, counter-screen, cell-based, ATP luminescence, mouse fibroblasts (AID 2010); assay type: functional;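 note: cells exposed to compound for about 90 hours before reading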
[27] = cytotoxicity in KRAS-transformed pancreatic duct cells, primary screen, cell-based, fluorescence, HTS (AID 431); assay type: functional; details: Homo sapiens;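 note: cell line used: HPDE-C7K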
[28] = cytotoxicity in HPDE-C7 cells, cell-based, fluorescence, HTS (AID 430); assay type: functional; details: Homo sapiens
[29] = growth suppression of beta-catenin-knockout colon cells, dose response, cell-based, HCT116, human colon tumor (AID 1045); assay type: functional;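 note: HCT116 colon tumor cells with beta catenin knocked out; cells exposed to compound for 60 hours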
[30] = growth suppression of PTEN-null colon cells, dose response, cell-based, HCT116 PTEN knockout (AID 1047); assay type: functional;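 note: HCT116 colon tumor cells with PTEN knocked out; cells exposed to compound for 60 hours before readout; potency for loss of cell viability measured by luminescence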

## NC(Cc1ccc(C(F)(F)F)cc1)c1csc(NC(=O)Nc2ccccc2)n1 (centres undefined)
[1]
  IC50: 2.39 µM (active)
[2]
  AC50: 2.85 µM (active)
[3]
  AC50: 8.46 µM (active)
[4]
  AC50: 3.13 µM (active)
[5]
  AC50: 2.21 µM (active)
[6]
  AC50: 11.3 µM (active)
[7]
  IC50: 1.47 µM (active)
[8]
  IC50: 24.7 µM (inactive)
Melanocortin receptor 4
  EC50: > 89.2 µM (inactive)

## CCCCC(CC)CNC(=O)C1C2C=CC(C2)C1C(=O)O (centres undefined)
[9]
  EC50: > 29.9 µM (inactive)
[10]
  IC50: > 29.9 µM (inactive)
Cells [11]
  EC50: > 29.9 µM (inactive)
Cells [12]
  IC50: > 29.9 µM (inactive)

## COc1ccc(C(=O)NNC(=S)NC(=O)c2cccc([N+](=O)[O-])c2)cc1
[13]
  EC50: > 160 µM (inactive)
[14]
  CC50: 19.3 µM (active)
Albumin
  IC50: > 94.1 µM (inactive)
[15]
  CC50: 17.9 µM (active)
[16]
  EC50: 2.63 µM (active)
[17]
  CC50: > 20 µM (active)
Cells [18]
  IC50: 18.9 µM (active)

## Cc1cccc(NS(=O)(=O)c2ccc3nc(-c4ccccc4)[nH]c3c2)c1C
[1]
  IC50: 14.6 µM (inactive)
[7]
  IC50: 119 µM (inactive)

## COC(=O)C[C@H]1c2cc(C(F)(F)F)ccc2S(=O)(=O)N1Cc1ccc(OC)cc1
Vero
  AC50: 34.6 µM (active)

## O=C(Nc1ccc2c(c1)OCCO2)c1cccs1
[19]
  IC50: > 9.98 µM (inactive)

## COc1ccccc1NCc1nnc(SCC(=O)N/N=C/c2ccco2)n1-c1ccc(Cl)cc1Cl
Cytochrome P450 2D6
  AC50: 28.2 µM (inconclusive)
[20]
  AC50: > 100 µM (inactive)
Cytochrome P450 1A2
  AC50: 28.2 µM (inconclusive)
Cytochrome P450 2C9
  AC50: 35.5 µM (inconclusive)

## Cc1ccc(NC(=O)Cn2cccc2C2=NC(c3ccccc3)CO2)cc1C (centres undefined)
Vero
  AC50: 27.9 µM (active)

## Cc1cc2cc3c(NC(=O)c4ccco4)nn(C)c3nc2cc1C
[21]
  AC50: 147 µM (active)

## O=C(CCN1C(=O)/C(=C/c2ccc(Cl)cc2)SC1=S)NCCCn1ccnc1
Beta-lactamase [22]
  IC50: > 59.6 µM (inactive)
Beta-lactamase [23]
  IC50: > 59.6 µM (inactive)

## CCOc1ccc(C(O)(CCC(C)C)C(CN2CCOCC2)c2ccccc2)cc1 (centres undefined)
[2]
  AC50: 3.6 µM (active)
[3]
  AC50: 9.83 µM (active)
[4]
  AC50: 5.42 µM (active)
[5]
  AC50: 3.65 µM (active)
[6]
  AC50: 26.8 µM (active)

## C/C(=N\NC(=O)c1nnn(-c2nonc2N)c1CN(C)c1ccccc1)c1ccccc1O
Streptokinase A
  EC50: > 150 µM (not active)
[24]
  EC50: 5.37 µM (active)
Albumin
  IC50: > 94.1 µM (inactive)
INS1
  AC50: 2.15 µM (active)
[25]
  EC50: 0.403 µM (active)
Streptococcus
  EC50: 5.74 µM (active)
[26]
  EC50: 5.57 µM (active)

## O=C(CCN1CCC(c2ccccc2)C1)c1cccs1 (centres undefined)
[27]
  EC50: > 20 µM (not active)
[28]
  EC50: > 20 µM (not active)
[9]
  EC50: 0.157 µM (active)
[10]
  IC50: 1.49 µM (active)
[29]
  EC50: 29.3 µM (active)
[30]
  EC50: 34.1 µM (active)
Cells [11]
  EC50: > 29.9 µM (inactive)
Cells [12]
  IC50: > 29.9 µM (inactive)

## CSc1nccc(Oc2ccccc2Cl)n1
[19]
  IC50: > 9.99 µM (inactive)

## COc1cccc(NC(=O)CC(=O)c2ccc([N+](=O)[O-])cc2)c1
[20]
  AC50: 94.1 µM (active)
